Measurements taken from patent publication US20260232835A1, “AFFIBODY MICELLE DRUG CONJUGATE” (KOWA COMPANY, LTD., priority 2022, published 2026).
pIC50: −log10 of the molar value.

Key:
[1] = tested on: HER2 antigen-positive human cancer cell line HCC-1954; assay: Cytotoxic test (CellTiter-Glo cell viability), HCC-1954; type: cell-based; conditions: cultured for 4 days
Protocol: (§1) The mertansine (DM1) (Cayman CHEMICAL) was dissolved in dimethyl sulfoxide (DMSO: FUJIFILM Wako Pure Chemical Corporation) to prepare DM1 solutions of 60 μmol/L, 20 μmol/L, 6.7 μmol/L, 2.2 μmol/L, 0.74 μmol/L, 0.25 μmol/L, 0.082 μmol/L, and 0.027 μmol/L. Next, after a dilution series of 60 nmol/L, 20 nmol/L, 6.7 nmol/L, 2.2 nmol/L, 0.74 nmol/L, 0.25 nmol/L, 0.082 nmol/L, and 0.027 nmol/L were created by respectively diluting these solutions with RPMI1640 (hereinafter, RPMI1640 medium) containing 10% fetal bovine serum (Merck KGaA), these solutions were respectively added to a cell culture microplate in equal amounts to a cell culture liquid, and diluted to 1/2, thereby evaluating the cytotoxic effects thereof at a final DM1 concentration of 30 nmol/L, 10 nmol/L, 3.3 nmol/L, 1.1 nmol/L, 0.37 nmol/L, 0.12 nmol/L, 0.041 nmol/L, or 0.014 nmol/L.
(§2) A HER2 antigen-positive human gastric cancer cell line HCC-1954 (American Type Culture Collection) or a HER2 antigen-negative human breast cancer cell line MDA-MB-468 (American Type Culture Collection) was adjusted to a cell concentration of 2.0×10^4 cells/mL with the RPMI1640 medium, and 100 μL each was added to the 96 well microplate for cell culture and cultured overnight. […] The light emission amount was then measured with the plate reader (Molecular Devices, LLC.). The cell viability was calculated by the following equation. […]

[2] = tested on: human breast cancer cell line MDA-MB-468; assay: Cytotoxic test (CellTiter-Glo cell viability), MDA-MB-468; type: cell-based; conditions: Table 8, cultured for 4 days, read-out: IC50 HER2-negative MDA-MB-468
Protocol: as §1, §2

[3] = tested on: mouse colon cancer cell line C26; assay: Drug efficacy test in cancer-carrying nude mice with subcutaneously transplanted C26; type: in vivo; conditions: after 14 days from administration; tail vein, 3 times every other day; DACHPt-encapsulating SCNP 3 mg/kg in terms of Pt, oxaliplatin solution 8 mg/kg (3.9 mg/kg in terms of Pt)
Protocol: Cancer-carrying models obtained by subcutaneously transplanting a mouse colon cancer cell line C26 (American Type Culture Collection) into female nude mice (BALB/c-nu/nu, 7 weeks old; Charles River Laboratories Japan, Inc.) were used for the drug efficacy test.
The mouse colon cancer cell line C26 subcultured in a CO2 incubator was suspended in a liquid medium (Dulbecco's Modified Eagle's Medium-high glucose, Sigma-Aldrich), and injected subcutaneously in the back of each of the nude mice such that the number of cells per mouse was 1×106/100 μL. Then, the nude mice were raised for about 1 week, and then administration of the agent was started when an average value of tumor volumes was grown to about 30 mm^3. The DACHPt-encapsulating SCNP (DACHPt-encapsulating SCNP prepared using the copolymer of Example 70) was administered through the tail veins of the mice (3 times every other day), and antitumor effects were evaluated based on the tumor volumes (4 to 5 mice per 1 group). As a comparison, an oxaliplatin solution (Comparative Example 1) was used, and the oxaliplatin solution was administered in the same manner. The dose of each preparation was 8 mg/kg (3.9 mg/kg in terms of Pt) as the maximum administrable dose for the oxaliplatin solution, and 3 mg/kg in terms of Pt for the DACHPt-encapsulating SCNP. […]

Compound | pIC50 [1] | pIC50 [2] | T/C: ratio of the tumor volume of the drug administration group (T) to that of the control group (C) [3]
COc1cc2cc(c1Cl)N(C)C(=O)C[C@H](OC(=O)[C@H](C)N(C)C(=O)CCS)[C@]1(C)O[C@H]1[C@H](C)[C@@H]1C[C@@](O)(NC(=O)O1)[C@H](OC)/C=C/C=C(\C)C2 [Comparative example 2, mertansine, reference compound] | 9.96 | 9.39 | –
O=C1[O][Pt]2([NH][C@@H]3CCCC[C@H]3[NH]2)[O]C1=O [oxaliplatin solution, oxaliplatin] | – | – | 1.1
